Structures can show the parent of a compound that is named as a salt.

T1 sequence (P41146 whole entry): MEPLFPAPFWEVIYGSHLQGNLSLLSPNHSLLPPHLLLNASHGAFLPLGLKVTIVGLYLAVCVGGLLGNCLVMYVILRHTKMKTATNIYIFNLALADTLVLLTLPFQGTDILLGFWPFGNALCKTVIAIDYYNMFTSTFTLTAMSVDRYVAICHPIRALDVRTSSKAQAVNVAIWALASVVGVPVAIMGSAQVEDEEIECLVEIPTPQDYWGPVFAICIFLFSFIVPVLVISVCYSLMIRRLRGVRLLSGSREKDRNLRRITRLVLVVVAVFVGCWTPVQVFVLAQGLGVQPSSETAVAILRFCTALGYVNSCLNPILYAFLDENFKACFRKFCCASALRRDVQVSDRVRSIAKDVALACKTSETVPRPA

One data set concerns the target T1, human ORL1 receptor (Homo sapiens, UniProt P41146).
T1 construct: purchased PerkinElmer; host or cells: HEK-293 cells transfected with human ORL1 receptor (membranes)
In words: ORL1-Receptor Binding Assay. Particulars: Ki, [3H]nociceptin, human ORL1 receptor transfected HEK-293 cell membranes. Here is the method: The human ORL1 receptor transfected HEK-293 cell membranes (PerkinElmer) were incubated for 45 min at room temperature with 0.4 nM [^3H]nociceptin, 1.0 mg of wheat germ agglutinin(WGA)-coated SPA beads and various concentrations of test compounds in a final volume of 200 μL of 50 mM HEPES buffer pH 7.4 containing 10 mM MgCl2 and 1 mM EDTA. Non-specific binding (NSB) was determined by the addition of 1 μM unlabeled nociceptin. After the reaction, the assay plate was centrifuged at 1,000 rpm for 1 min and then the radioactivity was measured by WALLAC 1450 MicroBeta Trilux.
The compounds of the examples were tested in the ORL1 Receptor Binding assay.
As for `CN(C)C(=O)C(Cc1cscn1)CN1C2CCC1CC1(C2)OCc2ccccc21` (stereo not drawn) [Example 1, N,N-DIMETHYL-3-(3′H,8H-SPIRO[8-AZABICYCLO[3.2.1]OCTANE-3,1′-[2]BENZOFURAN]-8-YL)-2-(1,3-THIAZOL-4-YLMETHYL)P[…], CITRATE], the inhibition constant (Ki) (commonly the equilibrium dissociation constant of an inhibitor or competing ligand from its target) is 1.8 nM.

The same data set, now with this note: [3H]nociceptin, human ORL1 receptor transfected HEK-293 cell membranes; read-out: Ki.
As to `CN(C)C(=O)C(Cc1cscn1)CN1C2CCC1CC1(C2)OCc2ccc(F)cc21` (stereo not drawn) [Example 9, 3-(6′-FLUORO-3′H,8H-SPIRO[8-AZABICYCLO[3.2.1]OCTANE-3,1′-[2]BENZOFURAN]-8-YL)-N,N-DIMETHYL-2-(1,3-THIAZOL-4-YLMETHYL) P[…]], the Ki amounted to 3.8 nM.

Turning to `CN(C)C(=O)C(CN1C2CCC1CC1(C2)OCCc2cc(F)ccc21)Cn1cccn1` (stereo not drawn) [Example 11, 3-(6′-FLUORO-3′,4′-DIHYDRO-8H-SPIRO[8-AZABICYCLO[3.2.1]OCTANE-3,1′-ISOCHROMEN]-8-YL)—N,N-DIMETHYL-2-(1H-PYRAZOL-1-YLMETHYL)P[…], CITRATE], the inhibition constant (Ki) was determined as 1.3 nM.

Regarding `CN(C)C(=O)C(CN1C2CCC1CC1(C2)OCc2ccc(F)cc21)Cn1cccn1` (stereo not drawn) [Example 5, 3-(6′-FLUORO-3′H,8H-SPIRO[8-AZABICYCLO[3.2.1]OCTANE-3,1′-[2]BENZOFURAN]-8-YL)-N,N-DIMETHYL-2-(1H-PYRAZOL-1-YLMETHYL)P[…], CITRATE], the inhibitory constant (Ki) amounted to 3.6 nM.

Regarding `CN(C)C(=O)C(CN1C2CCC1CC1(C2)OCCc2ccccc21)Cn1cccn1` (stereo not drawn) [Example 10, 3-(3′,4′-DIHYDRO-8H-SPIRO[8-AZABICYCLO[3.2.1]OCTANE-3,1′-ISOCHROMEN]-8-YL)-N,N-DIMETHYL-2-(1H-PYRAZOL-1-YLMETHYL)P[…], CITRATE], the inhibition constant (Ki) worked out at 7.2 nM.

As for `CN(C)C(=O)C(CN1C2CCC1CC1(C2)OCc2ccccc21)Cn1cccn1` (stereo not drawn) [Example 2, N,N-DIMETHYL-3-(1H-PYRAZOL-1-YL)-2-(3′H,8H-SPIRO[8-AZABICYCLO[3.2.1]OCTANE-3,1′-[2]BENZOFURAN]-8-YLMETHYL)P[…], CITRATE], the Ki worked out at 2.4 nM.

Regarding `CN(C)C(=O)C(CN1C2CCC1CC1(C2)OCCc2cc(F)ccc21)Cn1cccn1` (single isomer, unassigned; (-)) [Example 13, (−)-3-(6′-FLUORO-3′,4′-DIHYDRO-8H-SPIRO[8-AZABICYCLO[3.2.1]OCTANE-3,1′-ISOCHROMEN]-8-YL)-N,N-DIMETHYL-2-(1H-PYRAZOL-1-YLMETHYL)PROPANAMIDE], the Ki was 1 nM.

With `CN(C)C(=O)C(CN1C2CCC1CC1(C2)OCc2ccccc21)Cn1cccn1` (single isomer, unassigned; (+)) [Example 3, (+)-N,N-DIMETHYL-3-(1H-PYRAZOL-1-YL)-2-(3′H,8H-SPIRO[8-AZABICYCLO[3.2.1]OCTANE-3,1′-[2]BENZOFURAN]-8-YLMETHYL)P[…], CITRATE], the inhibition constant (Ki) came out at 2 nM.

For the molecule `CN(C)C(=O)C(CN1C2CCC1CC1(C2)OCCc2cc(F)ccc21)Cn1cccn1` (single isomer, unassigned; (+)) [Example 12, (+)-3-(6′-FLUORO-3′,4′-DIHYDRO-8H-SPIRO[8-AZABICYCLO[3.2.1]OCTANE-3,1′-ISOCHROMEN]-8-YL)-N,N-DIMETHYL-2-(1H-PYRAZOL-1-YLMETHYL)P[…], CITRATE], the Ki was found to be 140 nM.

For the molecule `CN(C)C(=O)C(CN1C2CCC1CC1(C2)OCc2ccc(F)cc21)Cn1cccn1` (single isomer, unassigned; (-)) [Example 7, (−)-3-(6′-FLUORO-3′H,8H-SPIRO[8-AZABICYCLOr3.2.1]OCTANE-3,1′-[2]BENZOFURAN]-8-YL)-N,N-DIMETHYL-2-(1H-PYRAZOL-1-YLMETHYL)PROPANAMIDE], the Ki is 3.6 nM.

`CN(C)C(=O)C(CN1C2CCC1CC1(C2)OCc2ccc(F)cc21)Cn1cccn1` (single isomer, unassigned) [Example 8, 3-(6′-FLUORO-3′H,8H-SPIRO[8-AZABICYCLO[3.2.1]OCTANE-3,1′-[2]BENZOFURAN]-8-YL)-N,N-DIMETHYL-2-(1H-PYRAZOL-1-YLMETHYL)P[…], CITRATE]: the Ki came out at 2.6 nM.

For another data set, the target named is T2, HERG (Homo sapiens, UniProt Q12809).
T2 construct: expressed in transfected cells; host or cells: HEK-293
T2 sequence (Q12809 whole entry): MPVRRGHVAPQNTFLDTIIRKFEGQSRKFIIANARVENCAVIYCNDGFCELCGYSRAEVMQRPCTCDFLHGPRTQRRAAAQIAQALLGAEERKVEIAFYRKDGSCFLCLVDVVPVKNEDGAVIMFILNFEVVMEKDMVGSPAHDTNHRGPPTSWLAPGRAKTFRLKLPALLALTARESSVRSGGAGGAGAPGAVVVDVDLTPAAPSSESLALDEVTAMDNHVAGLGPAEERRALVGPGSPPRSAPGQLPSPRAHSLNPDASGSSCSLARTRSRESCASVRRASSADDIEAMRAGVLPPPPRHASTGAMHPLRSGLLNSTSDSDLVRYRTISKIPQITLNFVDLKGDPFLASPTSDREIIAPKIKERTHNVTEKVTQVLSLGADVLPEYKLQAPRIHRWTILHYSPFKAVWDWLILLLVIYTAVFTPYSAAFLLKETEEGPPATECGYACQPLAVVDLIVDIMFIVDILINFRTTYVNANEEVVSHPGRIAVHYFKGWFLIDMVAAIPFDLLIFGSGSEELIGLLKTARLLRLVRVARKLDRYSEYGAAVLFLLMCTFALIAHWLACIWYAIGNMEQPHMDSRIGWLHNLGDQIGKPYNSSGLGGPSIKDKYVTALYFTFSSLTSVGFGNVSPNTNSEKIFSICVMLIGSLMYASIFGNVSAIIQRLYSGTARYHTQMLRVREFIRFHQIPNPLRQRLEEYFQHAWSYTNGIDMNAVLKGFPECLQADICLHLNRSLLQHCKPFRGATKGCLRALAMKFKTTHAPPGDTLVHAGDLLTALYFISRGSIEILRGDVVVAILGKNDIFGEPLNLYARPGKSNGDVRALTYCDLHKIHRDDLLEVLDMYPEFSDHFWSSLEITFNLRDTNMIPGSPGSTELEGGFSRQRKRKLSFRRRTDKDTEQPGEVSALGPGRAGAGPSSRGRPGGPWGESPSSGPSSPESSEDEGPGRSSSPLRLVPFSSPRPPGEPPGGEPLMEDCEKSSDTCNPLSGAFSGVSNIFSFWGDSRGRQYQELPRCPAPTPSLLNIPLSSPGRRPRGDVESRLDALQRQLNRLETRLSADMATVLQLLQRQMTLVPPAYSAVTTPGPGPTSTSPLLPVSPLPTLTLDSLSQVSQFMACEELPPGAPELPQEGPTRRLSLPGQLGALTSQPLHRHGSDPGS
Assay: not given
The format is binding.
Details: not given
On the procedure:
Cell paste of HEK-293 cells expressing the HERG product was suspended in 10-fold volume of 50 mM Tris buffer adjusted at pH 7.5 at 25° C. with 2 M HCl containing 1 mM MgCl2, 10 mM KCl. The cells were homogenized using a Polytron homogenizer (at the maximum power for 20 seconds) and centrifuged at 48,000 g for 20 minutes at 4° C. The pellet was resuspended, homogenized and centrifuged once more in the same manner. The resultant supernatant was discarded and the final pellet was resuspended (10-fold volume of 50 mM Tris buffer) and homogenized at the maximum power for 20 seconds. The membrane homogenate was aliquoted and stored at −80° C. until use. An aliquot was used for protein concentration determination using a Protein Assay Rapid Kit and ARVO SX plate reader (Wallac). […] Saturation was determined by incubating 20 μl of [^3H]-dofetilide and 160 μl of membrane homogenates (20-30 μg protein per well) for 60 min at room temperature in the absence or presence of 10 μM dofetilide at final concentrations (20 μl) for total or nonspecific binding, respectively. […] Receptor-bound radioactivity was quantified by liquid scintillation counting using Packard LS counter.
For the competition assay, compounds were diluted in 96 well polypropylene plates as 4-point dilutions in semi-log format. […] Receptor-bound radioactivity was quantified by counting Wallac MicroBeta plate counter. […]
Consider `CN1C(=O)C(CN2CCC3(CCc4ccccc43)CC2)Cc2ccccc21` (stereo not drawn) [Compound (I)], for which the “activity in the dofetilide binding assay” value is on record as “potent activity”.
